The structures appear in SMILES notation.

Series [1] can be described thus: In vitro cytotoxic assay, PC-3. Further: 0.1-25 µM tested. As to conditions: human, PC-3 cells (prostate cancer cell line). Format: cell-based. How it is done: (§1) Skin normal fibroblastic cells were purchased from Lonza (Basel, Switzerland). […] All culture media were supplemented by 10% of FBS, 1% of penicillin–streptomycin and 2 mM glutamine.
(§2) Chemicals were solubilized in DMSO at a concentration of 10 mM (stock solution) and diluted in culture medium to the desired final concentrations. […] Cells were plated in 96-well plates (4000 cells/well). Twenty-four hours after seeding, the cells were exposed to chemicals. […] Image acquisition and analysis were performed using a Cellomics ArrayScan VTI/HCS Reader (ThermoScientific, Les Ulis, France). The survival percentages were calculated as the percentage of cell number after compound treatment over cell number after DMSO treatment. The relative IC50 values were calculated using the curve fitting XLfit 5.5.0.5 (idbs) integrated in Microsoft Excel as an add-on.
(§3) 4.3.1. Cell culture. Skin normal fibroblastic cells are purchased from Lonza (Basel, Switzerland). Huh7- […]
(§4) from ATCC (American Type Culture Collection). […]
(§5) supplemented by 10% of FBS, 1% of penicillin-streptomycin and 2 mM glutamine.
(§6) 4.3.2. Cytotoxic assay. Chemicals were solubilized in DMSO at a concentration of 10 mM (stock solution) and diluted in culture medium to the desired final concentrations. The dose effect cytotoxic assays (IC50 determination) were performed by increasing the concentrations of each chemical (final well […]
(§7) Cells were plated in 96-well plates
(§8) (4000 cells/well). Twenty-four hours after seeding, cells were exposed to chemicals. After 48h of treatment, cells were washed in PBS and fixed in cooled 90% ethanol/5% acetic acid for 20 min and the […]
(§9) Image acquisition and analysis were performed using a Cellomics ArrayScan VTI/HCS Reader (ThermoScientific). The survival percentages were calculated as the percentage of cell number after compound treatment over cell number after DMSO treatment. The relative IC50 were calculated using the curve fitting XLfit 5.5.0.5 (idbs) integrated in Microsoft Excel as an add-on. The 4 Parameter Logistic Model or Sigmoidal Dose-Response Model describing the sigmoid-shaped response pattern was used (fit = (A+[(B-A)/(1+[(C/x)^D])]) where fit is the response and X is the tested concentration of the compound. The lower asymptote is A (also referred to as the bottom of the curve or lower plateau or the min) and the upper asymptote is B (also referred to as the top of the curve or upper plateau or the max). The slope of the linear part of the curve is described by the factor D. The parameter C is the concentration corresponding to the response midway between A and B. C is called “relative IC50” because it refers to the maximum response obtained by a […]
(§10) The results are represented as the mean ± standard error (SE) calculated from at least three independent experiments.

Another series addresses T1, CDK9/CyclinT (Homo sapiens, UniProt P50750).
T1 construct: host or cells: Sf9 insect cells (baculovirus)
Kind of series: ADP-Glo kinase inhibition assay, CDK9/CyclinT. Format: biochemical. As to conditions: percentage of maximum activity of the DMSO control, mean n = 2, 10 µM ATP, read-out: Residual activity CDK9/CyclinT; for remaining activity at 1 µM: 1 μM compound; for remaining activity at 10 µM: 10 μM compound. How it is done: Kinase enzymatic activities were assayed in 384-well plates using the ADP-Glo^TM assay kit (Promega, Madison, WI, USA) according to the recommendations of the manufacturer. This luminescent ADP detection assay was described by Zegzouti and co-workers and provides a homogeneous and high-throughput screening method to measure kinase activity by quantifying the amount of ADP produced during a kinase reaction. Briefly, the reactions were carried out in a final volume of 6 µL for 30 min at 30 °C in an appropriate kinase buffer (10 mM MgCl2, 1 mM EGTA, 1 mM DTT, 25 mM Tris-HCl pH 7.5, 50 µg/mL heparin), with peptide or protein as substrate in the presence of 10 µM ATP. Peptide substrates were obtained from ProteoGenix (Schiltigheim, France) or Sigma for Histone H1, Poly (L-glutamic acid–L-tyrosine) sodium salt, Casein and MBP. After that, 6 µL of ADP-Glo^TM Kinase Reagent was added to stop the kinase reaction. After an incubation time of 50 min at room temperature (rt), 12 µL of Kinase Detection Reagent was added for one hour at rt. The transmitted signal was measured using the Envision (PerkinElmer, Waltham, MA, USA) microplate luminometer and expressed as Relative Light Units (RLUs). Kinase activities are expressed as percentages of remaining kinase activities detected after treatment with 1 or 10 µM of the tested compounds. The maximum kinase activity was measured in the absence of inhibitor but with an equivalent dose of DMSO (solvent of the tested compounds).
3. Kinase inhibition assays
Kinase enzymatic activities were assayed in 384-well plates using the ADP-GloTM assay kit (Promega, Madison, WI) according to the recommendations of the manufacturer. This luminescent ADP detection assay was described by Zegzouti and co-workers and provides a homogeneous and high-throughput screening method to measure kinase activity by quantifying the amount of ADP produced during a kinase reaction. Briefly, the reactions were carried out in a final volume of 6 µl for 30 min at 30°C in appropriate kinase buffer (10 mM MgCl2, 1 mM EGTA, 1 mM DTT, 25 mM Tris-HCl pH 7.5, 50 µg/mL heparin), with peptide or protein as substrate in the presence of 10 µM ATP. Peptide substrates were obtained from ProteoGenix (Schiltigheim, France) or Sigma for Histone H1, Poly (L-glutamic acid – L-tyrosine) sodium salt, Casein and MBP. After that, 6 µL of ADP-GloTM Kinase Reagent was added to stop the kinase reaction. After an incubation time of 50 min at room temperature (rt), 12 µL of Kinase Detection Reagent was added for 1 h at rt. The transmitted signal was measured using the Envision (PerkinElmer, Waltham, MA) microplate luminometer and expressed in Relative Light Unit (RLU). Kinase activities are expressed in percentages of remaining kinase activities detected after treatment with 1 or 10 µM of the tested compounds. The maximal kinase activity is measured in the absence of inhibitor but with an equivalent dose of DMSO (solvent of the tested compounds).
Table. Human protein kinases tested in the panel: CDK9, HASPIN, PIM1, GSK3b, CK1ε, JAK3, CLK1 […]
Protein Kinase Enzyme Description Substrate1
(Family) (Working concentration)
CDK9/CyclinT Human, recombinant, expressed by Peptide:
(CMGC) baculovirus in Sf9 insect cells […]
CLK1 Human, recombinant, expressed by Peptide: […]
(CMGC) baculovirus in Sf9 insect cells (57.3µM)
DYRK1A Human, recombinant, expressed by Peptide: […]
(CMGC) baculovirus in Sf9 insect cells (10.7µM)
PIM1 Human proto-oncogene, recombinant, Peptide: […]
(CAMK) expressed in bacteria (630 µM)
GSK3 Human, recombinant, expressed by Peptide:
(CMGC) baculovirus in Sf9 insect cells […]pEDEEE 3
HASPIN Human, kinase domain, amino acids 470 to Histone H3 peptide (1-21):
(Other) 798, recombinant, expressed in bacteria […] (8µM)
CK1ε Human, recombinant, expressed by Peptide: […]pAYSITA 2
(CK1) baculovirus in Sf9 insect cells (170µM)
JAK3 Human, recombinant, expressed by Peptide: […]
(TK) baculovirus in Sf9 insect cells (94µM) […]

Series [2] can be described thus: In vitro cytotoxic assay, Caco-2. Further: 0.1-25 µM tested. As to conditions: human, Caco-2 cells (colon cancer cell line). Format: cell-based. How it is done:
as §1, §2, §3, §4, §5, §6, §7, §8, §9, §10

T1 sequence (P50750 whole entry): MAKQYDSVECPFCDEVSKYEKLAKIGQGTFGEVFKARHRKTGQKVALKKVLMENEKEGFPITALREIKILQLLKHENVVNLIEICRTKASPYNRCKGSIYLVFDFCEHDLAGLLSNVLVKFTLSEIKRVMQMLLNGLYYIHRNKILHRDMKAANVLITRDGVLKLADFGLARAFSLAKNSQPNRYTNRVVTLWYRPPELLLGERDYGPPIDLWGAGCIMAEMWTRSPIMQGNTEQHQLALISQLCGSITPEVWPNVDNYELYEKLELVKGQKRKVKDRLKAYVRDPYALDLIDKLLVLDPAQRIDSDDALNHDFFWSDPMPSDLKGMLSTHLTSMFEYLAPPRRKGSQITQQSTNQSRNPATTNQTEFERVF
T1 sequence (O60563 whole entry partner): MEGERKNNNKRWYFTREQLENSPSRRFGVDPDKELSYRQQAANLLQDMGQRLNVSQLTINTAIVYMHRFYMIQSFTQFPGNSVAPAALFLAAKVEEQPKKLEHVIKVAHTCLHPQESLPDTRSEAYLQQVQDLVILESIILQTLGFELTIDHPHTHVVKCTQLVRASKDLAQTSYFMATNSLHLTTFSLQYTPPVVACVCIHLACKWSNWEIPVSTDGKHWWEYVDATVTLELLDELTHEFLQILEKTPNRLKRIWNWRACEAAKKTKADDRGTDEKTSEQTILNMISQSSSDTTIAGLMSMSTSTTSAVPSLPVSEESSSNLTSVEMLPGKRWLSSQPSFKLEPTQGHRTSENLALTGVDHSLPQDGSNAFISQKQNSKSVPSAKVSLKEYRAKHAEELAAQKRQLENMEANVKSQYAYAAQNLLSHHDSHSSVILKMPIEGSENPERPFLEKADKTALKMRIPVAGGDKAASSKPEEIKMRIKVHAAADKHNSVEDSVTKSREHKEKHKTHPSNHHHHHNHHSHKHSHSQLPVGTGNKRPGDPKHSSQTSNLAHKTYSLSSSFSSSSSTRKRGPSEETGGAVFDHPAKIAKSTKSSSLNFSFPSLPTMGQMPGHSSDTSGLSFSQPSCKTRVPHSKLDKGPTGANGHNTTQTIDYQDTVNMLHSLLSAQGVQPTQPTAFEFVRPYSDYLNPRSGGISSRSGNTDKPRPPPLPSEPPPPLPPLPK

Turning to `COC(=N)c1nc2ccc3c(=O)n(Cc4ccccc4)cnc3c2s1` [Compound 6d, Methyl 7-benzyl-6-oxo-6,7-dihydrothiazolo[4,5-h]quinazoline-2-carbimidate], the IC50 at 48 h in series [1] and in series [2] was 10 µM throughout. Further, the remaining activity at 1 µM at CDK9/CyclinT came to 106%. Moreover, on CDK9/CyclinT, the remaining activity at 10 µM amounted to 94%.

In the case of `COC(=N)c1nc2cc3c(Nc4ccc(OC)cc4F)ncnc3cc2s1` [Compound 15a, Methyl 8-[(2-fluoro-4-methoxyphenyl)amino]thiazolo[4,5-g]quinazoline-2-carbimidate], at CDK9/CyclinT, the remaining activity at 1 µM stood at 101% and the remaining activity at 10 µM was determined as 100%.

In the case of `COC(=N)c1nc2cc3c(=O)n(Cc4ccccc4)cnc3cc2s1` [Compound 6a, Methyl 7-benzyl-8-oxo-7,8-dihydrothiazolo[4,5-g]quinazoline-2-carbimidate], in series [1], the midpoint of inhibition, the IC50 at 48 h, lay at 20 µM. Besides, on CDK9/CyclinT, the remaining activity at 1 µM amounted to 103% and the remaining activity at 10 µM stood at 101%. In addition, in series [2], the IC50 at 48 h is 17 µM.

For `COC(=N)c1nc2ccc3ncn(Cc4ccccc4)c(=O)c3c2s1` [Compound I, methyl 8-benzyl-9-oxo-8,9-dihydrothiazolo[5,4-f]quinazoline-2-carbimidate, reference compound], the concentration for half-maximal inhibition (IC50) at 48 h in series [1] was determined as 20 µM. Besides, on CDK9/CyclinT, the remaining activity at 1 µM came out at 91% and the remaining activity at 10 µM turned out to be 41%. In addition, in series [2], the midpoint of inhibition, the IC50 at 48 h, lay at 12 µM.

Take `COC(=N)c1nc2ccc3ncnc(Nc4ccc(OC)cc4F)c3c2s1` [Compound II, methyl 9-[(2-fluoro-4-methoxyphenyl)amino]thiazolo[5,4-f]quinazoline-2-carbimidate, reference compound]: in series [1], the IC50 at 48 h stood at 4 µM. Further, on CDK9/CyclinT, the remaining activity at 1 µM was found to be 86% and the remaining activity at 10 µM stood at 59%. Also, inhibition in series [2] was half-maximal at 3 µM (IC50 at 48 h).

For the molecule `COC(=N)c1nc2cc3ncnc(Nc4ccc(OC)cc4F)c3cc2s1` [Compound 15b, Methyl 8-[(2-fluoro-4-methoxyphenyl)amino]thiazolo[5,4-g]quinazoline-2-carbimidate], at CDK9/CyclinT, the remaining activity at 1 µM came to 98% and the remaining activity at 10 µM came to 110%.

With `COC(=N)c1nc2cc3ncn(Cc4ccccc4)c(=O)c3cc2s1` [Compound 6b, Methyl 7-benzyl-8-oxo-7,8-dihydrothiazolo[5,4-g]quinazoline-2-carbimidate], it took 2 µM to reach half-maximal inhibition in series [1] (IC50 at 48 h). On CDK9/CyclinT, the remaining activity at 1 µM was 107% and the remaining activity at 10 µM stood at 104%. In series [2], this molecule returned a half-maximal inhibitory concentration (IC50) at 48 h of 2 µM.

For the molecule `COC(=N)c1nc2c(ccc3c(=O)n(Cc4ccccc4)cnc32)s1` [Compound 6c, Methyl 7-benzyl-6-oxo-6,7-dihydrothiazolo[5,4-h]quinazoline-2-carbimidate], the half-inhibitory concentration (IC50) at 48 h in series [1] turned out to be 8 µM. Also, at CDK9/CyclinT, the remaining activity at 1 µM is 105% and the remaining activity at 10 µM was 101%. The same molecule gave an IC50 at 48 h in series [2] of 6 µM.

The record behind these values is PMC11597202, “Novel Thiazole-Fused [4,5-g] or [5,4-g]Quinazolin-8-ones and Their Quinazoline Analogues: Synthesis and Biological Evaluation” (Pharmaceuticals, 2024).
